{
  "source": "patent US20050201938A1",
  "about": "“Method for selectively inhibiting ghrelin action” (priority 2000, published 2005)",
  "key": {"[1]": {"assay": "Indirect calorimetry (energy expenditure, fuel utilization)", "type": "in vivo, mice", "description": "Twenty-four hour energy expenditure (EE) and respiratory quotient (RQ) were measured by indirect calorimetry using an open circuit calorimetry system (Oxymax, Columbus Instruments International Corporation; Columbus, Ohio). The instrument was calibrated before each experiment using standard gas mixtures containing known concentrations of CO2, N2 and O2. After the first daily injection, animals were placed in calorimeter chambers containing food and water in a room maintained under identical conditions as those described above throughout the treatment period. Gas sampled from each of 10 chambers was first dried by a condenser. The volume of oxygen consumed (VO2) and carbon dioxide produced (VCO2) in an hour was measured using a paramagnetic oxygen sensor and a spectrophotometric CO2 sensor. Such measurements were obtained hourly for 24 hours. RQ is the ratio of VCO2 to VO2. EE was calculated as the product of calorific value of oxygen (CV) and VO2 per kilogram (kg) of body weight; where CV=3.815+1.232*RQ (Elia, M. & Livesey, G, World Rev Nutr Diet 70, 68-131 (1992)). Total calories expended were calculated to determine daily fuel utilization. To calculate proportion of protein, fat and carbohydrate that is utilized during that 24-hour period, we used Flatt's proposal and assumed that protein utilization was equivalent to protein intake for adult stable animals (Flatt, J. P., J. Nutr Biochem 2, 193-202 (1991)). Using formulae and constants derived by Elia and Livesey (Elia, M. & Livesey, G., World Rev Nutr Diet, 70, 68-131 (1992)), we calculated the percent of daily fuel utilization derived from carbohydrate and fat. Daily caloric intake was calculated as (mass of daily food intake in g)*(physiological fuel value of the diet in kcal/g). Locomotor activity was measured by counting the number of times an animal breaks a new light beam during each of 24 hours in the calorimeter.\n(§1) Mice were treated with GHRP-2 for 18 days. […] This was partially a consequence of decreased (p=0.02) lipid utilization measured by indirect calorimetry. Hypothalamic mRNA levels (measured by RT-PCR) of neuropeptide Y (NPY), agouti-related-protein (AGRP), pro-opio-melanocortin (POMC) and […] (MCH) were not changed. Since GHRP-6 increases c-fos expression in NPY-neurons (Vernon, R. G.; J Endocrinol 150, 129-40 (1996)) and because these neurons also release AGRP, a natural melanocyte stimulating hormone antagonist, GHRP-2 treatment was repeated in NPY-knockout mice (NPY-/−). […] However, an increase in AGRP mRNA levels (p=0.008, n=24 in GHRP-2 treated (NPY-/−)) was observed. Plasma levels of IGF-I, insulin, glucose and corticosterone were not changed. […] 200 μg of rat ghrelin was injected subcutaneously into wild-type mice, GHRP-2 or vehicle (phosphate buffered saline). After 5 days of treatment, body weight increased (p=0.00) 12% in both ghrelin- and GHRP-2-treated mice but not in controls. This weight gain was a consequence of decreased energy expenditure and decreased lipid utilization."}, "[2]": {"assay": "In-vivo analysis of body composition by dual-energy X-ray absorptiometry (DXA)", "design": "species or system mice", "description": "Body composition was measured on day 14 of the treatment period by DXA using a Norland p-DEXA® (Norland, USA). The system provides a non-invasive method for quantification of whole body composition and is based on the differential attenuation of high and low energy x-rays by the tissues in the scan area. Soft tissues attenuate the energy beam less than bone; of the soft tissue mass, fat tissue attenuates the beam less than lean tissue. Fat mass consists primarily of adipose tissue, but lean mass includes organs, tendons, cartilage, blood and body water in addition to skeletal muscle. In the present study, fat mass, lean mass and bone mineral content (bone mass) were measured and reported. Mice were anesthetized with inhalation of isoflorane and placed on the instrument platform in ventral position. Measurements were performed at a speed of 10 mm/min and a resolution of 0.5×0.5 mm. Quality controls using phantom ID2232 and Calibration Standard 82315 (Norland) were performed before starting measurements.\nas §1"}, "[3]": {"assay": "In vivo administration to wild-type mice: food intake and body weight", "conditions": "for body weight increase: wild-type mice, subcutaneous injection, after 5 days of treatment, not in controls", "description": "(§2) Wild-type mice (129SV strain) and NPY-knockout mice were obtained from Taconic Farms®. Eight-week old dwarf rats were purchased at Harlan UK. Animals were housed individually in a temperature controlled environment (25° C.) with a 12-hour light and 12-hour dark (18.00−06.00) photoperiod. All mice had ad libitum access to pelleted mouse food (5008 PMI® Nutrition International) and tap water. Mice were between 9 and 13 weeks of age and were injected daily between 17.00 and 18.00 with 0.1 ml of phosphate buffered saline (PBS) containing 0 or 8 mg/kg/d ghrelin over 13 days. Food intake and body weights were measured daily at 08.00 h. All animal experiments were conducted in accordance with the principles and procedures outlined in the National Institute of Health (NIH) Guide for the Care and Use of Laboratory Animals.\nas §1"}, "[4]": {"tested_on": "NPY-knockout mice (NPY-/-)", "assay": "GHRP-2 treatment repeated in NPY-knockout mice", "type": "in vivo", "description": "as §2\nMice were treated with GHRP-2 for 18 days. […] This was partially a consequence of decreased (p=0.02) lipid utilization measured by indirect calorimetry. Hypothalamic mRNA levels (measured by RT-PCR) of neuropeptide Y (NPY), agouti-related-protein (AGRP), pro-opio-melanocortin (POMC) and […] (MCH) were not changed. […]"}, "[5]": {"assay": "Plasma levels of IGF-I, insulin, glucose and corticosterone after GHRP-2 treatment", "type": "in vivo", "conditions": "GHRP-2 treated mice", "description": "as §1"}, "[6]": {"tested_on": "hypothalamic mRNA of NPY, AGRP, POMC, MCH", "assay": "Hypothalamic mRNA levels measured by RT-PCR, wild-type mice", "type": "in vivo", "conditions": "GHRP-2 treatment", "description": "as §1"}, "[7]": {"conditions": "wild-type mice, 5 days of treatment"}, "[8]": {"conditions": "mice treated with GHRP-2 for 18 days, n=42, p=0.001"}},
  "data": [
    {"substance": "ghrelin", "values": [
      {"measurement": "energy expenditure", "setting": "[1]; [7]", "result": "decreased"},
      {"measurement": "lipid utilization", "setting": "[1]; [7]", "result": "decreased"},
      {"measurement": "effect of administration in an animal model (fat deposition)", "setting": "[2]; animal model, inventors' work, Nature 407: 908-913 (2000)", "result": "predominantly lead to fat deposition"},
      {"measurement": "body weight increase", "setting": "[3]", "result": 12, "unit": "%"}
    ]},
    {"substance": "GHRP-2", "values": [
      {"measurement": "energy balance", "setting": "[4]", "result": "positive energy balance"},
      {"measurement": "AGRP mRNA levels", "setting": "[4]; p=0.008, n=24", "result": "increase"},
      {"measurement": "plasma level of IGF-I", "setting": "[5]", "result": "not changed"},
      {"measurement": "plasma level of corticosterone", "setting": "[5]", "result": "not changed"},
      {"measurement": "plasma level of glucose", "setting": "[5]", "result": "not changed"},
      {"measurement": "plasma level of insulin", "setting": "[5]", "result": "not changed"},
      {"measurement": "lipid utilization", "setting": "[1]; mice, 18 days treatment, indirect calorimetry, p=0.02", "result": "decreased"},
      {"measurement": "energy expenditure", "setting": "[1]; [7]", "result": "decreased"},
      {"measurement": "lipid utilization", "setting": "[1]; [7]", "result": "decreased"},
      {"measurement": "fat mass", "setting": "[2]; mice, 18 days treatment, DXA, p=0.002", "result": "significant increase"},
      {"measurement": "bone mass", "setting": "[2]; mice, 18 days treatment, DXA, p=0.017", "result": "significant increase"},
      {"measurement": "lean mass", "setting": "[2]; mice, 18 days treatment, DXA, p=0.63", "result": "no change"},
      {"measurement": "body weight", "setting": "[3]; [8]", "result": "dose-dependent increase"},
      {"measurement": "food intake", "setting": "[3]; [8]", "result": "dose-dependent increase"},
      {"measurement": "body weight increase", "setting": "[3]", "result": 12, "unit": "%"},
      {"measurement": "hypothalamic mRNA level of agouti-related-protein (AGRP)", "setting": "[6]", "result": "not changed"},
      {"measurement": "hypothalamic mRNA level of melanocyte-concentrating hormone (MCH)", "setting": "[6]", "result": "not changed"},
      {"measurement": "hypothalamic mRNA level of neuropeptide Y (NPY)", "setting": "[6]", "result": "not changed"},
      {"measurement": "hypothalamic mRNA level of pro-opio-melanocortin (POMC)", "setting": "[6]", "result": "not changed"}
    ]}
  ]
}
